Measurements from patent US8592394B2, “Synthetic derivatives beta glycolipids and compositions thereof for the treatment of pathologic disorders” (Enzo Therapeutics, Inc., priority 2003, dated 2013).

What was measured:
[1] = system: ConA induced hepatitis; test: ConA induced hepatitis model: serum AST and ALT (liver injury); assay type: in vivo, mice; details: for enzyme levels (serum ALT and AST): Con A
Protocol: The effect of β-glycolipids on liver injury was evaluated by serum aspartyl transaminase (AST) and alanine aminotransferase (ALT) activities, which were determined by a clinical chemistry analyzer, Reflovet Plus (Roche Diagnostics, GmbH, Mannheim, Germany).
Con A was purchased from MP Biomedicals (Ohio, USA), was dissolved (0.5 mg, 20 mg/kg) in 200 μl of 50 mM Tris pH 7, 150 mM NaCl, 4 mM CaCl2, and was injected intravenously into mice (tail vain). Sera from individual mice were obtained 8 or 20 h after Con A injection. Serum activities of alanine aminotransferase (ALT) and aspartate aminotransferase (AST) were measured by an automatic analyzer.
To determine the clinical and immunological effect of the novel synthetic compounds of the invention, immune-mediated hepatitis was examined using the ConA induced hepatitis model. Therefore, the different synthetic and natural derivatives of β-glycolipids of Formula II, III and IV [AD2897 (ALIB-97), AD2898, and AD2899, respectively], were examined using seven groups of C57Bl/6 mice, as summarized by Table 1. Mice in experimental groups A-G (eight mice in each group) were injected with ConA. Group A mice were administered with 100 μl intraperitoneal injection of solvent only [15% Cremophor EL/15% ethanol/70% PBS](C:E). Mice in groups B, C, D, E, F, and G were administered with intraperitoneal injection of 1 μg or 10 μg of each of the three analogs Formulated in solvent as described in Experimental Procedures. Animals were sacrificed and examined.
In order to evaluate the potential beneficial effect of the three novel analogues of the invention on immune-mediated hepatitis, the effect of treatment with two concentrations of the three synthetic analogs on liver damage in all tested groups was assessed by determination of serum aspartate aminotransferase (AST), and alanine aminotransferase (ALT) levels.

[2] = system: STAT1; test: Immunoblot of liver lysates: STAT1 phosphorylation; assay type: in vivo, mice; details: IP
Protocol: For ConA induced hepatitis experiments spleen and liver lysates were lysed in RIPA buffer containing 50 mM Tris, pH 7.4, 1% NP-40, 150 mM NaCl, 0.1% SDS, 0.5% sodium deoxycholate and protease inhibitors (5 μg/ml, Sigma), with protease and phosphatase (Sigma, Rehovot, Israel).
(§1) Lysates were centrifuged twice at 4° C. for 10 minutes in 14000 rpm. Equivalent amounts of lysates (15 μg/lane), determined by Bradford assay (Bio-Rad, Rehovot, Israel), were separated by sodium dodecyl sulfate polyacrylamide gel electrophoresis (SDS-PAGE) and transferred to nitrocellulose membranes.
For ConA induced hepatitis experiments proteins were detected with phospho-specific STAT1-Tyr701, STAT6-Tyr641, STAT1, and STAT6 antibodies from Cell Signaling. β-actin (abcam, UK) was used as a loading control.
(§2) Blots were developed with horseradish peroxidase-conjugated secondary antibodies (Jackson Laboratories Bar Harbor, Me.) and Western Blot-Luminol Reagent (Santa Cruz Biotechnology, CA, USA). Cell counting and western Blot quantification was performed using total Lab (Phoretix, USA) software.

[3] = system: AKT; test: Western blot of liver extracts of ob/ob mice: AKT activation; assay type: in vivo; details: per os daily 4 weeks, 15 μg (group D)
Protocol: For analysis of whole tissue lysates, snap-frozen liver pieces were homogenized in 0.75 ml of ice-cold PBS and centrifuged at 4° C. for 5 min in 2000 rpm. Pellets were lysed with 50 mM beta glycerophosphate, 1.5 mM EGTA, PH 7.3, 1 mM EDTA, PH 7.3, 1 mM DTT, 0.1 mM Sodium vanadate, 1% NP-40, and cocktails of protease and phosphatase (Sigma, Rehovot, Israel).
as §1
For metabolic syndrome experiments, proteins were detected with JNK-2, Phospho JNK (Thr183/Tyr185), Akt and phospho Akt (Ser 473) antibodies (Cell Signaling Technologies, MA). β-actin (abcam, UK) was used as the loading control.
as §2
Therefore, five groups of male C57BL/6 Ob/Ob mice were studied. […]

[4] = B6 mice, intraperitoneal, Con A hepatitis, p<0.05
[5] = B6 mice, oral administration, 20 h after Con A injection, vs control p<0.01
[6] = ConA induced hepatitis, C57Bl/6 mice, intraperitoneal, 10 μg/mice

SMILES: CCCCCCCCCCCCCC=CC(O)C(CO[C@@H]1OC(CO)[C@@H](O)C(O)C1O)NC(=S)NC12CC3CC(CC(C3)C1)C2 (stereo in doubt) [ALIB-97, N-adamantyl-N′-glucosylsphingosine thiourea]
- reduction of serum ALT levels [1, 4]: more than 60%
- reduction of serum AST levels [1, 4]: more than 60%
- serum ALT levels [1, 5]: significantly reduced
- serum AST levels [1, 5]: significantly reduced
- enzyme levels (serum ALT and AST) ([1]; CD1d−/− mice, intraperitoneal): did not significantly alter
- serum ALT levels [1, 6]: decreased
- serum AST levels [1, 6]: decreased
- liver damage induced by Con A treatment ([1]; Jα18 KO mice): exacerbated
- enzyme levels (serum ALT and AST) ([1]; Jα18−/− mice, intraperitoneal): did not significantly alter
- STAT1 phosphorylation of Tyr 701 in the liver ([2]; B6 mice): increased
- STAT1 phosphorylation of Tyr 701 in the liver ([2]; CD1d−/− mice): increased
- AKT activation [3]: decreased
